Reference: a melting point compilation (Tetko et al.; mined from patent text by program, amines drawn as free bases though some values may be those of a salt)

First: O=C1c2c(O)ccc(O)c2C(=O)c2c(NCCN3CCOC34CCCCC4)ccc(NCCN3CCOC34CCCCC4)c21
Second: Cn1cc(-c2cccc(N3Cc4cc(C(C)(C)C)ccc4C3=O)c2CO)cc(Nc2ccc(C3CN(C(=O)OC(C)(C)C)C3)cn2)c1=O
The melting point of the first is higher: 218 to 225 °C for the first, 151 to 152 °C for the second.

Compared with `COc1cc(-c2c(Cl)c(CNC(C)(C)C)nc3sc4c(c23)CCNC4)ccc1OC(C)C`, `CC(C)(C)OC(=O)c1nc(-c2ccccc2)[nH]c1-c1cnccn1` is higher in melting point: 157 to 158 °C for the first, 196 to 197 °C for the second.

First: COc1ccc2c(c1)C(=O)N(c1ccc3ccn(CC#N)c3c1)C2
Second: CN1CCN(Cc2ccc(NC(=O)n3ccc4cc(Oc5cc(CC(N)=O)ncn5)ccc43)cc2C(F)(F)F)CC1
The melting point of the first is lower: 218 to 220 °C for the first, 221 to 223 °C for the second.

First: O=[N+]([O-])c1c(Nc2ccc3[nH]ccc3c2)ncnc1-c1ccc(C(F)(F)F)cc1F
Second: CN(C)Cc1cc(Oc2ccc3c(C(=O)Nc4cccc(C(F)(F)F)c4)cccc3c2)ncn1
The melting point of the first is lower: 147 to 149 °C for the first, 180 to 181 °C for the second.

First: CCC(O)(CC)CC(=NO)C1(c2ccc(Cl)cc2)CCC1
Second: Oc1ccc2nc(Cc3ccc(Cl)cc3)oc2c1
The melting point of the first is lower: 113 to 115 °C for the first, 167 to 168 °C for the second.

Compared with `CC(C)(C)c1c[nH]c(S)n1`, `Cc1nc(C=O)c(C)[nH]1` is lower in melting point: 232 to 234 °C for the first, 164 to 166 °C for the second.

First: CC(C)(C)OC(=O)NC(=NS(=O)(=O)C(F)(F)F)NC(=O)OCc1ccccc1
Second: Cc1cccc(NC(=O)NCCC(=O)N(CC(=O)OC(C)(C)C)c2ccccc2)c1
The melting point of the first is lower: 95 to 97 °C for the first, 142 °C for the second.

First: Nc1cc(-c2ccccc2)ccc1Cl
Second: Cc1cccc(C(=O)Cc2ccccc2)c1C
The melting point of the first is higher: 91 to 92.5 °C for the first, 52 to 53 °C for the second.

First: CN(C)C1CCN(c2nc(N3CCOCC3)c3ncnc(OCc4ccccc4)c3n2)CC1
Second: NC(=O)[C@@H]1[C@H](Nc2c(Br)cnc3[nH]c(-c4cccc(CN5CCOCC5)c4)nc23)[C@H]2C=C[C@@H]1C2
The melting point of the first is higher: 186 to 188 °C for the first, 184 to 185 °C for the second.

Compared with `Oc1cccc(C2CCCN2Cc2ccccn2)c1` (centres undefined), `C(=C\c1nc2ccccc2n1-c1ccccn1)/c1ccco1` is higher in melting point: 96 to 98 °C for the first, 164 to 165 °C for the second.

First: CCCCCCCCCCCCCCSCC(O)CNCCO (centres undefined)
Second: O=C(O)CCCCCCCSc1nc(-c2ccccc2)c(-c2ccccc2)[nH]1
The melting point of the first is lower: 71.4 to 73.2 °C for the first, 160 to 162 °C for the second.

First: CCOC(=O)CCc1ccc(CCN2CCN(S(=O)(=O)c3ccccc3)CC2)cc1
Second: CC(=O)NCc1ccc(CN2CCN(c3cc(Cl)nc(Cl)n3)CC2)cc1
The melting point of the first is lower: 114 to 116 °C for the first, 165 to 166 °C for the second.

Compared with `CC(C)(C)OC(=O)/C(=C/C1CCCCC1)C(=O)c1ccccc1O`, `N#Cc1c(NC(=O)C2CCCCC2)sc(-c2ccccc2)c1Br` is higher in melting point: 62 to 65 °C for the first, 167 to 168 °C for the second.

Compared with `Cc1cc(-c2ncn(Cc3ccc(F)cc3)n2)sc1C(=O)NCc1cccnc1`, `Cc1c[nH]c(-c2ccc(F)cc2)c1-c1ccc(F)cc1` is lower in melting point: 154 to 155 °C for the first, 126 to 127 °C for the second.

First: Cc1cccc(Nc2cc(Nc3cccc(OCC(N)=O)c3)ncn2)c1
Second: O=S(=O)(Nc1cccnc1Nc1ccccc1)c1ccc(Oc2ccccc2)cc1
The melting point of the first is higher: 192 to 194 °C for the first, 164 to 166 °C for the second.

Compared with `O=S1(=O)N(CCBr)c2ccccc2N1c1ccc(Cl)cc1`, `CCN1C(=O)c2cnc(-c3ccccc3)nc2N(C(=O)CCl)c2ccccc21` is higher in melting point: 86 to 89 °C for the first, 147 to 148 °C for the second.

First: N#Cc1ccc(C(=O)c2cc(C(F)(F)F)ccc2O)cc1
Second: CC(=O)c1ccc2nc3ccc(C(=O)O)cc3c(=O)n2c1
The melting point of the first is lower: 118 °C for the first, 305 to 309 °C for the second.

Compared with `Cc1ccc(C(N)=S)nc1`, `COc1ncc(Cl)cc1C(O)C(N)=O` (centres undefined) is lower in melting point: 172 to 173 °C for the first, 110 to 113 °C for the second.

Compared with `CCCCN(c1nc(N(CC)CC)nc(N(CCCC)C2CC(C)(C)NC(C)(C)C2)n1)C1CC(C)(C)NC(C)(C)C1`, `CCCCc1nc2c(N)nc3ccccc3c2n1CC(C)(C)OCCS(C)(=O)=O` is higher in melting point: 74 to 76 °C for the first, 196 to 198 °C for the second.

First: O=Cc1c[nH]c2c(F)cccc12
Second: [N-]=[N+]=NC1CCc2ccccc2NC1=O (centres undefined)
The melting point of the first is higher: 203 to 205 °C for the first, 142 to 145 °C for the second.

Compared with `O=C1CCC(c2cc(F)c(OC3CCN(C4CCC4)CC3)c(F)c2)=NN1`, `CCc1nc2c(N)nc3ccccc3c2n1CCOCCNC(=O)NC1CCCCC1` is higher in melting point: 162 to 164 °C for the first, 198 to 200 °C for the second.

First: CCOC(=O)Nc1cnn(C)c1S(=O)(=O)NC(=S)NC(C)C
Second: Cc1cc(Cl)ccc1-c1nn(C(C)(C)C(=O)N(C)C)cc1C
The melting point of the first is higher: 141 to 144 °C for the first, 99 to 100 °C for the second.

First: [O-][N+](=Cc1ccccc1)CCCCCC[N+]([O-])=Cc1ccccc1
Second: Cc1c(CC(C)C(=O)c2cn(C)c3ccccc23)ncn1C(c1ccccc1)(c1ccccc1)c1ccccc1 (centres undefined)
The melting point of the first is lower: 105 °C for the first, 209 to 210 °C for the second.

Compared with `CC(=O)NS(=O)(=O)c1ccc(-c2c(Cl)nc(C(F)(F)F)nc2-c2ccc(S(C)(=O)=O)cc2)cc1`, `CSc1ccc(-c2csc(NC(C)=O)n2)cc1` is higher in melting point: 230 to 235 °C for the first, 235 to 236 °C for the second.

With `Oc1ccc2c(c1Cl)Sc1ccccc1N2` the melting point was 110 °C.
